The source made the active and inactive calls. No cut-off for these calls is given here.
Columns and labels:
CAL-51 [1] = assay: Antiproliferative activity against human CAL-51 cells incubated for 72 hrs by SRB proliferation assay; assay type: functional
HCT-116 [2] = assay: Antiproliferative activity against human HCT-116 cells incubated for 72 hrs by SRB proliferation assay; assay type: functional
CAL-51 [3] = assay: Induction of mitotic arrest in human CAL-51 cells assessed as upregulation of histone H3 phosphorylation at S10 residue at 25 uM incubated for 8 hrs by dot blot assay; assay type: functional, cell-based
Tubulin (Homo sapiens) [4] = molecular target: T1, Tubulin (Homo sapiens) (UniProt P68371+Q9H4B7+P0DPH7+P68366+Q13509+Q71U36+P04350+Q3ZCM7+P07437+P68363+Q9BQE3+Q6PEY2+Q13885+Q9BVA1+Q9BUF5); assay: Inhibition of microtubule re-polymerization in human A549 cells at 5 times GI50 preincubated for 30 min on ice followed by incubation at 37 degreeC for 10 mins by immunofluorescence analysis; assay type: cell-based; settings: time 40.0 min
Tubulin (Homo sapiens) [5] = molecular target: T1, Tubulin (Homo sapiens); assay: Inhibition of microtubule polymerization in human HCT-116 cells assessed as increase in soluble tubulin level at 1.25 to 5 times GI50 incubated for 5 mins by immunoblot analysis; assay type: cell-based
Tubulin (Homo sapiens) [6] = molecular target: T1, Tubulin (Homo sapiens); assay: Inhibition of microtubule polymerization in human HCT-116 cells assessed as decrease in polymeric tubulin level at 1.25 to 5 times GI50 incubated for 5 mins by immunoblot analysis; assay type: cell-based
MCF7 = assay: Antitumor activity against human MCF7 cells by MTS assay; assay type: functional
A549 [7] = assay: Induction of mitotic cell arrest in human A549 cells assessed as chromosome misalignment at 5 times GI50 incubated for 24 hrs by immunofluorescence based confocal microscopic analysis; assay type: functional
K562 = assay: Antitumor activity against human K562 cells by MTS assay; assay type: functional
Tubulin (Homo sapiens) [8] = molecular target: T1, Tubulin (Homo sapiens); assay: Inhibition of microtubule polymerization (unknown origin) at 10 uM incubated for 1 hr by turbidimetric assay relative to control; assay type: protein-complex assay
KB-V1 [9] = assay: Cytotoxicity against multidrug resistant human KB-V1 cells assessed as inhibition of cell proliferation; assay type: functional
KB 3-1 [10] = assay: Induction of apoptosis in human KB-3-1 cells assessed as increase in PARP cleavage at 1.25 to 5 uM incubated for 24 hrs by Western blot analysis; assay type: functional, cell-based; settings: dose 1.25-5 µM
KB 3-1 [11] = assay: Antitumor activity against human KB-3-1 cells by MTS assay; assay type: functional
A549 [12] = assay: Induction of mitotic cell arrest in human A549 cells assessed as defective spindles at 5 times GI50 incubated for 24 hrs by immunofluorescence based confocal microscopic analysis; assay type: functional
[13] = Anticancer activity against mouse colon cancer organoids expressing Apc fl/fl-Kras G12D-Tp53 KO-Smad4 KO assessed as inhibition of cell viability measured after 4 days by Cell Titer Glo assay; assay type: functional; settings: Colon cancer organoid, 96 h, time 4 day
HCT-116 [14] = assay: Induction of apoptosis in human HCT-116 cells assessed as increase in PARP cleavage at 1.25 to 5 times GI50 incubated for 24 to 36 hrs by Western blot analysis; assay type: functional, cell-based; settings: time 24-36 hrs
HCT-116 [15] = assay: Induction of apoptosis in human HCT-116 cells assessed as increase in apoptotic cell death at 2.5 to 5 times GI50 incubated for 24 hrs by Annexin V/PI staining based flow cytometric analysis; assay type: functional
KB-V1 [16] = assay: Inhibition of P-gp in human KB-V1 cells at 5 uM by calcein AM efflux assay; assay type: functional, cell-based
HCT-116 [17] = assay: Induction of apoptosis in human HCT-116 cells assessed as increase in p53 expression at 1.25 to 5 times GI50 incubated for 24 to 36 hrs by Western blot analysis; assay type: functional, cell-based; settings: time 24-36 hrs
[18] = Resistance index, ratio of GI50 for multidrug resistant human KB-V1 cells to GI50 for human KB-3-1 cells; assay type: functional
HCT-116 [19] = assay: Induction of mitotic arrest in human HCT-116 cells assessed as upregulation of histone H3 phosphorylation at S10 residue at 1.25 to 5 times GI50 measured for 8 to 16 hrs by Western blot analysis; assay type: functional, cell-based; settings: time 8-16 hrs
HCT-116 [20] = assay: Induction of cell cycle arrest in human HCT-116 cells accumulation of cells at G2/M phase incubated for 12 hrs by PI staining based flow cytometry analysis; assay type: functional
KB-V1 [21] = assay: Induction of apoptosis in multidrug resistant human KB-V1 cells assessed as increase in PARP cleavage at 1.25 to 5 uM incubated for 24 hrs by Western blot analysis; assay type: functional, cell-based; settings: dose 1.25-5 µM
HCC1954 = assay: Antitumor activity against human HCC1954 cells by MTS assay; assay type: functional
MOLM-13 = assay: Antitumor activity against human MOLM-13 cells by MTS assay; assay type: functional
KB 3-1 [22] = assay: Cytotoxicity against human KB-3-1 cells assessed as inhibition of cell proliferation; assay type: functional
[23] = Anticancer activity against human colon cancer organoids assessed as inhibition of cell viability measured after 4 days by Cell Titer Glo assay; assay type: functional; settings: Colon cancer organoid, 96 h, time 4 day
A549 [24] = assay: Induction of mitotic arrest in human A549 cells assessed as increase in mitotic index by measuring histone H3 phosphorylation at S10 residue at 5 times GI50 incubated for 24 hrs by immunofluorescence analysis; assay type: functional, cell-based
BT-549 = assay: Antitumor activity against human BT-549 cells by MTS assay; assay type: functional
MV4-11 = assay: Antitumor activity against human MV4-11 cells by MTS assay; assay type: functional
KB 3-1 [25] = assay: Induction of apoptosis in human KB-3-1 cells assessed as increase in PARP cleavage at 100 uM incubated for 24 hrs by Western blot analysis; assay type: functional, cell-based

## O=C1CCCC2=C1C(c1cccc(Cl)c1)c1cc3c(cc1N2)OCCO3 (stereo unspecified)
CAL-51 [1]
  GI50: 12.6 µM
HCT-116 [2]
  GI50: 18.4 µM
CAL-51 [3]
  Activity: Active

## O=C1CCCC2=C1C(c1ccco1)c1cc3c(cc1N2)OCCO3 (stereo unspecified)
CAL-51 [1]
  GI50: 11.8 µM
HCT-116 [2]
  GI50: 9.85 µM
CAL-51 [3]
  Activity: Active

## COc1ccc(OC)c(C2C3=C(CCCC3=O)Nc3cc4c(cc32)OCCO4)c1 (stereo unspecified)
CAL-51 [1]
  GI50: 20.9 µM
HCT-116 [2]
  GI50: 12.2 µM

## O=C1CCCC2=C1C(c1ccccc1)c1cc3c(cc1N2)OCCO3 (stereo unspecified)
CAL-51 [1]
  GI50: 9.53 µM
HCT-116 [2]
  GI50: > 100 µM
CAL-51 [3]
  Activity: Active

## O=C1CCCC2=C1C(c1cccc(F)c1F)c1cc3c(cc1N2)OCCO3 (stereo unspecified)
CAL-51 [1]
  GI50: 4.63 µM
HCT-116 [2]
  GI50: 4.64 µM

## COc1cc(C2C3=C(CCCC3=O)Nc3cc4c(cc32)OCCO4)cc(OC)c1OC (stereo unspecified)
CAL-51 [1]
  GI50: 4.15 µM
HCT-116 [2]
  GI50: 3.33 µM
CAL-51 [3]
  Activity: Active

## O=C1CCCC2=C1C(c1ccc(F)c(F)c1)c1cc3c(cc1N2)OCCO3 (stereo unspecified)
CAL-51 [1]
  GI50: 7.94 µM
HCT-116 [2]
  GI50: 5.44 µM

## CC[C@]1(O)C[C@H]2CN(CCc3c([nH]c4ccccc34)[C@@](C(=O)OC)(c3cc4c(cc3OC)N(C=O)[C@H]3[C@@](O)(C(=O)OC)[C@H](OC(C)=O)[C@]5(CC)C=CCN6CC[C@]43[C@@H]65)C2)C1 [VINCRISTINE]
CAL-51 [1]
  GI50: 0.089 µM
HCT-116 [2]
  GI50: 0.006 µM

## COC(=O)Nc1nc2cc(C(=O)c3cccs3)ccc2[nH]1 [NOCODAZOLE]
Tubulin (Homo sapiens) [4]
  inhibition: Active
Tubulin (Homo sapiens) [5]
  inhibition: Active
CAL-51 [1]
  GI50: 0.209 µM
HCT-116 [2]
  GI50: 0.24 µM
Tubulin (Homo sapiens) [6]
  inhibition: Active

## COc1cccc(C2C3=C(CCCC3=O)Nc3cc4c(cc32)OCCO4)c1 (stereo unspecified)
CAL-51 [1]
  GI50: 12.7 µM
HCT-116 [2]
  GI50: 11.9 µM
CAL-51 [3]
  Activity: Active

## CN1C2=C(C(=O)CCC2)C(c2ccc(Br)cc2)c2cc3c(cc21)OCCO3 (stereo unspecified)
CAL-51 [1]
  GI50: 23.7 µM
HCT-116 [2]
  GI50: 17.3 µM

## COc1cc([C@@H]2c3cc4c(cc3[C@H](O)[C@H]3COC(=O)[C@H]23)OCO4)cc(OC)c1OC [PODOFILOX]
CAL-51 [1]
  GI50: 0.013 µM
HCT-116 [2]
  GI50: 0.013 µM

## O=C1CCCC2=C1C(c1cccc([N+](=O)[O-])c1)c1cc3c(cc1N2)OCCO3 (stereo unspecified)
MCF7
  GI50: 5.02 µM
A549 [7]
  Activity: Active
K562
  GI50: 17.7 µM
Tubulin (Homo sapiens) [8]
  inhibition: Active
KB-V1 [9]
  GI50: 1.74 µM
Tubulin (Homo sapiens) [4]
  inhibition: Active
KB 3-1 [10]
  Activity: Active
KB 3-1 [11]
  GI50: 1.29 µM
Tubulin (Homo sapiens) [5]
  inhibition: Active
CAL-51 [1]
  GI50: 3.3 µM
A549 [12]
  Activity: Active
[13]
  GI50: 7.16 µM
HCT-116 [14]
  Activity: Active
HCT-116 [15]
  Activity: Active
KB-V1 [16]
  inhibition: inactive
HCT-116 [17]
  Activity: Active
[18]
  RatioGI50: 1.35
HCT-116 [19]
  Activity: Active
HCT-116 [20]
  Activity: Dose-Dependent Effect
HCT-116 [2]
  GI50: 2.01 µM
KB-V1 [21]
  Activity: Active
HCC1954
  GI50: 21.2 µM
Tubulin (Homo sapiens) [6]
  inhibition: Active
MOLM-13
  GI50: 4.23 µM
KB 3-1 [22]
  GI50: 1.29 µM
[23]
  GI50: 11.6 µM
A549 [24]
  Activity: Active
BT-549
  GI50: 7.05 µM
MV4-11
  GI50: 9.45 µM
CAL-51 [3]
  Activity: Active

## CC(=O)O[C@H]1C(=O)[C@@]2(C)[C@H]([C@H](OC(=O)c3ccccc3)[C@]3(O)C[C@H](OC(=O)[C@H](O)[C@@H](NC(=O)c4ccccc4)c4ccccc4)C(C)=C1C3(C)C)[C@]1(OC(C)=O)CO[C@@H]1C[C@@H]2O [PACLITAXEL]
KB-V1 [9]
  GI50: 0.432 µM
[18]
  RatioGI50: 193.51
KB 3-1 [22]
  GI50: 0.00223 µM
KB 3-1 [25]
  Activity: Active
